Legend:
cancer patients [1] = assay: Hand foot skin reaction (HFSR) in cancer patients receiving regorafenib, by ethnicity; assay type: in vivo, human
Protocol: HFSR of grade 3-4 are among the most common grade 3-4 […] reactions associated with a therapy with regorafenib or an equivalent thereof. In this example, single nucleotide polymorphisms (SNPs) of CCL5 were evaluated for their ability to predict the likelihood for a patient to experience HFSR from a therapy comprising an effective amount of regorafenib or an equivalent thereof.
Genomic DNA was obtained from more than 200 cancer patients receiving regorafenib and analyzed by using PCR-based direct sequencing. SNPs in CCL5 were tested to discover that the rarity (<1%) of the genotype of (G/G) for the rs2280789 polymorphism and/or the rs3817655 polymorphism (the genotype of (G/G) for the rs2280789 polymorphism and/or the rs3817655 are seen in 10% in Asian (Japanese) and 1% in Caucasian (Italian)) relates to the significant ethnic difference in severe HFSR developed by Caucasian patients compared to Japanese patients (grade 3 HFSR 16% vs 33.8% respectively, p=0.003).

cancer patients [2] = assay: Clinical outcome (OS, PFS, tumor response) of cancer patients treated with regorafenib, by SNP genotype; assay type: in vivo, human
Protocol: Further, single nucleotide polymorphisms (SNPs) of genes involved in various angiogenic pathways were evaluated for their ability to predict clinical outcomes for cancer patient treated with a therapy comprising regorafenib or an equivalent thereof.
Still further, combinations of single nucleotide polymorphisms (SNPs) of genes involved in various angiogenic pathways were evaluated for their ability to predict clinical outcomes for cancer patient treated with a therapy comprising regorafenib or an equivalent thereof.
Genomic DNA was obtained from cancer patients in therapies comprising regorafenib or an equivalent thereof and analyzed by using PCR-based direct sequencing. Multiple functional SNPs in 11 genes (NOTCH1, IL8, CCL5, DLL4, PLGF, ANG2, TIE1, PDGFRB, VEGFR2, EGFC and VEGFA) were tested.
PCR and product sequencing were done using standard procedures. Uni- and multivariate analyses, adjusting for age, gender, rash and racial background, were carried out.

[3] = VEGFR2 rs2071559 A/Variant + NOTCH1 rs3125001 C/C + ANG2 rs2916702 A/Variant carriers
[4] = VEGFR2 rs2071559 A/Variant + NOTCH1 rs3125001 C/C + ANG2 rs2916702 G/G carriers
[5] = VEGFR2 rs2071559 A/Variant + NOTCH1 rs3125001 T/Variant carriers
[6] = VEGFR2 rs2071559 A/variant carriers (N=111)

## CNC(=O)c1cc(Oc2ccc(NC(=O)Nc3ccc(Cl)c(C(F)(F)F)c3)c(F)c2)ccn1 [regorafenib]
Cancer patients [1]; Caucasian (Italian) patients receiving regorafenib
  grade 3 HFSR: 16%
Cancer patients [1]; Japanese patients receiving regorafenib
  grade 3 HFSR: 33.8%
Cancer patients [2]; TIE1 A/A + Plgf C/C vs TIE1 G/Variant carriers (HR reference), multivariate
  HR for OS: 0.22
Cancer patients [2]; TIE1 A/A + Plgf T/Variant vs TIE1 G/Variant carriers (HR reference), multivariate
  HR for OS: 0.79
Cancer patients [2]; TIE1 rs7527092 A/A (N=41)
  median OS: 4.7 months
Cancer patients [2]; TIE1 rs7527092 A/A + Plgf rs2268614 C/C carriers (N=9)
  median OS: 2.6 months
Cancer patients [2]; TIE1 rs7527092 A/A + Plgf rs2268614 T/Variant carriers (N=32)
  median OS: 5.8 months
Cancer patients [2]; TIE1 rs7527092 A/A vs G/variant carriers, multivariate, p=0.0063
  HR for OS: 1.72
Cancer patients [2]; TIE1 rs7527092 A/A vs G/variant carriers, univariate, p=0.0303
  HR for OS: 1.49
Cancer patients [2]; TIE1 rs7527092 G/Variant carriers (N=109)
  median OS: 7.8 months
Cancer patients [2]; TIE1 rs7527092 G/variant carriers (N=106)
  median OS: 7.8 months
Cancer patients [2]; [3]
  patients non-responsive (tumor response): 7
  patients responsive (tumor response): 16
Cancer patients [2]; [4]
  patients non-responsive (tumor response): 6
  patients responsive (tumor response): 2
Cancer patients [2]; [5]
  patients non-responsive (tumor response): 49
  patients responsive (tumor response): 25
Cancer patients [2]; [6]
  median OS: 7.0 months
  median PFS: 2.3 months
  response (positive): 41%
Cancer patients [2]; VEGFR2 rs2071559 G/G (N=39)
  median OS: 4.7 months
  median PFS: 1.8 months
  response (positive): 18%
Cancer patients [2]; VEGFR2 rs2071559 G/G carriers
  patients non-responsive (tumor response): 31
  patients responsive (tumor response): 7
Cancer patients [2]; VEGFR2 rs2071559 G/G vs A/variant carriers, multivariate, p=0.0197
  HR for PFS: 1.59
Cancer patients [2]; VEGFR2 rs2071559 G/G vs A/variant carriers, univariate, p=0.0250
  HR for PFS: 1.49
Cancer patients [2]; VEGFR2 rs2071559 G/G vs A/variant carriers, univariate, p=0.0452
  HR for OS: 1.45
Cancer patients [2]; high-risk group: VEGFR2 rs2071559 G/G + NOTCH1 rs6563 A/A (N=15) together with G/G + NOTCH1 G/Variant + ANG2 rs2442599 A/A (N=11)
  median PFS: 1.7 months
Cancer patients [2]; low-risk group: VEGFR2 rs2071559 A/variant (N=111) together with G/G + NOTCH1 rs6563 G/Variant + ANG2 rs2442599 G/Variant (N=13)
  median PFS: 2.3 months
Cancer patients [2]; tree model high-risk vs low-risk group (VEGFR2/NOTCH1/ANG2), multivariate, log-rank P<0.001
  HR for PFS: 0.41
